Assays:
[1] = test system: Apc/K-Ras intestinal organoids; assay: Growth and differentiation of Apc/K-Ras intestinal organoids; type: cell-based, mouse
Protocol: Intestinal crypts were isolated from Apc/K-Ras animals bearing Apc^1638N and villin-driven K-Ras^G12V alleles with slight modifications[36] of a previously described method. Briefly, crypts were isolated and purified, embedded in 50 μl matrigel drops (Corning, 356231) and overlaid with 500 μl organoid medium Advanced DMEM/F12 (Life Technologies, 11320-082) containing 2 mM GlutaMAX (Life Technologies, 35050-061), 10 mM HEPES buffer (Sigma, 83264-100ML-F), 0.5 U/ml Penicillin/Streptomycin (Life Technologies, 15070-063), N2 (Life Technologies, 17502-048), B27 (Life Technologies, 12587-010)]. Organoids were expanded for 5 days in growth factor supplemented medium containing 50 ng/ml mEGF (Life Technologies, PMG8041), 100 ng/ml mNoggin (Peprotech, 250–38) and 500 ng/ml hRSPO1 (R&D, 4645-RS-025). EGF and R-spondin were subsequently removed to select for organoids that had lost the wild-type Apc copy. The medium was changed every 2 days. Established mutant lines were passaged every four days by mechanical disruption with a bent P1000 pipette tip.
(§1) 34 SUPPLEMENTARY MATERIALS AND METHODS
(§2) 36 Antibodies and chemicals - The following antibodies were used for Western blot:
(§3) 37 Rabbit monoclonal antibodies to CDK1-pThr14 (#2543), CDK1-pTyr15 (#9111), Histone
(§4) 39 Technology (Beverly, MA, USA). Mouse monoclonal antibodies to CDC25A (F-6, sc-
(§5) 41 from Santa Cruz Biotechnology (Santa Cruz, CA, USA). The mouse monoclonal
(§6) 42 antibody MPM2 (05-368) was from Upstate (Lake Placid, NY, USA). The mouse
(§7) 43 monoclonal antibody to the HA tag (HA.11, MMS-101P) was from BioLegend (S. Diego,
(§8) 44 CA, USA). The rabbit polyclonal antibody to PARP-1 (#227244) was obtained from
(§9) 45 Abcam. HRP-conjugated anti-mouse and anti-rabbit secondary antibodies were obtained
(§10) 46 from GE-Healthcare (Otelfingen, Switzerland). HRP-conjugated IgG-k-BP was
(§11) 47 purchased from Santa Cruz Biotechnology (Santa Cruz, CA, USA).
(§12) 48 The following antibodies were used for immunofluorescence on a Zeiss LSM 710
(§13) 49 confocal microscope: mouse monoclonal to beta-catenin (Cl. 14, BD transduction Lab.),
50 rabbit polyclonal to lysozyme (A0099, Dako). […]

[2] = molecular target: T1, CDC25B (Homo sapiens, UniProt P30305); assay: Enzymatic assay (OMFP substrate) on recombinant CDC25B; type: biochemical; details: mixed-model inhibition equation
T1 construct: GST (pGEX vector) (N); made in house; host or cells: E. coli BL21
Text: as §1, §2, §3, §4, §5, §6, §7, §8, §9, §10, §11, §12, §13
(§14) 50 rabbit polyclonal to lysozyme (A0099, Dako). Secondary antibodies were: Alexa 488 […]
(§15) 70 V-shaped 96 well plates and read at defined intervals on a Molecular Devices
(§16) 71 SpectraMax microplate reader (ex: 490 nm / em: 525 nm). […]
(§17) 72 calculated from Lineweaver-Burk double-reciprocal plots of the data were obtained using […]
(§18) 88 assessed as described 4. Data were plotted with Prism 7® and analyzed by non-linear […]

[3] = molecular target: T2, CDC25C (Homo sapiens, UniProt P30307); assay: Enzymatic assay (OMFP substrate) on recombinant CDC25C; type: biochemical; details: mixed-model inhibition equation
T2 construct: GST (pGEX vector) (N); made in house; host or cells: E. coli BL21
Text: as §1, §2, §3, §4, §5, §6, §7, §8, §9, §10, §11, §12, §13, §14, §15, §16, §17, §18

T1 sequence (P30305 whole entry): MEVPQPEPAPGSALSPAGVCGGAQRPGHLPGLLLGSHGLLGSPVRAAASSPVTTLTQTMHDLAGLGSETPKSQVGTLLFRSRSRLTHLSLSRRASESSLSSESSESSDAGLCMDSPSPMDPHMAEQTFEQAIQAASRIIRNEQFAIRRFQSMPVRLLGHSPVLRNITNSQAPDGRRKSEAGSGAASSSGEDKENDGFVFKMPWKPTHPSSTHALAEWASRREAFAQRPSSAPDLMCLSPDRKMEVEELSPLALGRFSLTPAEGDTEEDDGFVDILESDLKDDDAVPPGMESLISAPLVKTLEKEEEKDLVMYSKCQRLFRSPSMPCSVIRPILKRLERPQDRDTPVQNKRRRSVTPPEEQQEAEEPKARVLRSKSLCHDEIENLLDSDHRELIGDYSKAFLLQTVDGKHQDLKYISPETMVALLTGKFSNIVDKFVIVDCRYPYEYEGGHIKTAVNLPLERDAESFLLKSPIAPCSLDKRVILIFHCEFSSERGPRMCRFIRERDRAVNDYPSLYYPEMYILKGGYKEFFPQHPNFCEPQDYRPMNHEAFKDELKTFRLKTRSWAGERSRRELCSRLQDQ
T2 sequence (P30307 whole entry): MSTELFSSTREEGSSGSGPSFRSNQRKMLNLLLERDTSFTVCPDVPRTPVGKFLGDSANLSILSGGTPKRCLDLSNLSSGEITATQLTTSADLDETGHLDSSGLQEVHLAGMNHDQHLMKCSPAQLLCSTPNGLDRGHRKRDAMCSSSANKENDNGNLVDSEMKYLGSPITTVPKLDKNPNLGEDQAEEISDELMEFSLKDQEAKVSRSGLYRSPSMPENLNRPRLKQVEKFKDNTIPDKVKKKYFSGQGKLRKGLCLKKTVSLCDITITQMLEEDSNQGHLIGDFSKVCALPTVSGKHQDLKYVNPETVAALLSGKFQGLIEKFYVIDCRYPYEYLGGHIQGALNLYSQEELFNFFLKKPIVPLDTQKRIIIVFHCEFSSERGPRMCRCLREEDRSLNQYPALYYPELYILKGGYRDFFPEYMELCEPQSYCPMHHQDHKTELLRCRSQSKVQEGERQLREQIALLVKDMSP

Ki [2] [nM]	Ki [3] [nM]	SMILES	expression of lysozyme (differentiation marker), confocal immunofluorescence ([1]; 5 μM)	organoid morphology ([1]; 5 μM, 48 h)	organoid death ([1]; higher doses (data not shown))
–	–	O=C1C(c2ccc(O)cc2O)=CC(=O)c2c(O)cccc21 [UPD-176, 5-hydroxy-2-(2,4-dihydroxyphenyl)naphthalene-1,4-dione]	augmented expression of lysozyme	growing spheroids partially invaginated	massive death
440 ± 100	850 ± 300	COc1cccc(SC2=CC(=O)c3cccc(O)c3C2=O)c1 [UPD-795, 2-(3-methoxyphenylthio)-8-hydroxynaphthalene-1,4-dione]	–	–	–
